Results: US20220388964A1 (HiberCell, Inc., priority 2019, published 2022)

target: GCN2 (Homo sapiens, UniProt Q9P2K8); test: TR-FRET biochemical assay for inhibition of GCN2 (Example 106, for Example 1-4BB); conditions: Table 8
Sequence (Q9P2K8 whole entry): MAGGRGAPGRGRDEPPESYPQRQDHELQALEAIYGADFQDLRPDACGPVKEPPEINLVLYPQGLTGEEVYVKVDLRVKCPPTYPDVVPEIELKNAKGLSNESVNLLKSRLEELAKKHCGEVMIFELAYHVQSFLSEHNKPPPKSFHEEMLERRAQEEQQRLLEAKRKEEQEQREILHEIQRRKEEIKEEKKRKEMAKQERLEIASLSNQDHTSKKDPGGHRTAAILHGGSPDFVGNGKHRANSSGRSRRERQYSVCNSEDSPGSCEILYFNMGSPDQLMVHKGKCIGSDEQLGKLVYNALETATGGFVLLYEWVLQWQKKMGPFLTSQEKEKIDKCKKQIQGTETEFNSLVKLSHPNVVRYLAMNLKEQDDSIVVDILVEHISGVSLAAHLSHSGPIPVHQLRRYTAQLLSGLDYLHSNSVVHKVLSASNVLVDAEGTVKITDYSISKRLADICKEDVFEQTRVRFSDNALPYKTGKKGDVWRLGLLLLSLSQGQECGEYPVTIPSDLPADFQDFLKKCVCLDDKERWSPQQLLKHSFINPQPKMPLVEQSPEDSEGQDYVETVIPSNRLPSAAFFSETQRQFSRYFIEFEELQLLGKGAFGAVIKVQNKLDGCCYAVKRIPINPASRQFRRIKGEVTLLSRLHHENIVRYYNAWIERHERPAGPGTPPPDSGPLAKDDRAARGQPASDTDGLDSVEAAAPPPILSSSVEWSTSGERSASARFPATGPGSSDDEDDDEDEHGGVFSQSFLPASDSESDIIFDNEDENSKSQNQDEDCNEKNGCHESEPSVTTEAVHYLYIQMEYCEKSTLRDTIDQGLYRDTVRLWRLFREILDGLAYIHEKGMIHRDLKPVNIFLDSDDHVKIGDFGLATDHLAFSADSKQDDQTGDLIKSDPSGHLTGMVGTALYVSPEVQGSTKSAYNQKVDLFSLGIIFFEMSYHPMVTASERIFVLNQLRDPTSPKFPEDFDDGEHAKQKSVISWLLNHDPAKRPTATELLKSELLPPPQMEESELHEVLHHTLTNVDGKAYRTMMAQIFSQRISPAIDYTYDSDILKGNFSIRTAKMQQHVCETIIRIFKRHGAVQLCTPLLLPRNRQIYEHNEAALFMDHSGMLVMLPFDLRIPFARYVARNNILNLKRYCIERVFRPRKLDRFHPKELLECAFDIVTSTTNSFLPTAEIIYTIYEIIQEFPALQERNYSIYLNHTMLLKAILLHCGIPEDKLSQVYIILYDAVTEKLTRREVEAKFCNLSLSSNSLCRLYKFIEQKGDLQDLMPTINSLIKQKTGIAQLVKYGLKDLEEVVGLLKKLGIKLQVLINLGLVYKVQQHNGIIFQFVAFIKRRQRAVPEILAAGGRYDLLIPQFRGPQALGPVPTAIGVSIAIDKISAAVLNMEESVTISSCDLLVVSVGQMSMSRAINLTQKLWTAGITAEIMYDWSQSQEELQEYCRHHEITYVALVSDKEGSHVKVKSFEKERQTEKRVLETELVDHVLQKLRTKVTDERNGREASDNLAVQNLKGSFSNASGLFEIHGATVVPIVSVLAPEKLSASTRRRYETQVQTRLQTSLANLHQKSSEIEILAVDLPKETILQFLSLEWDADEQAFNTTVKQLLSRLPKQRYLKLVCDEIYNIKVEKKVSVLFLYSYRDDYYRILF

IC50 [µM]	Structure (SMILES)
< 0.5	O=S(=O)(Nc1ccc(F)c(-c2ccc3c(-c4ncc[nH]4)n[nH]c3c2F)c1F)c1ccc(F)cc1Cl [Example 2BS]
0.5 to 2.5	Cc1nn(C)cc1S(=O)(=O)Nc1ccc(F)c(-c2ccc3c(-c4ncc[nH]4)n[nH]c3c2F)c1F [Example 2I, N-(2,4-difluoro-3-(7-fluoro-3-(1H-imidazol-2-yl)-1H-indazol-6-yl)phenyl)-1,3-dimethyl-1H-pyrazole-4-sulfonamide]
< 0.5	COC(=O)c1ccc(Cl)cc1S(=O)(=O)Nc1ccc(F)c(-c2ccc3c(-c4ncc[nH]4)n[nH]c3c2F)c1F [Example 2BC, methyl 4-chloro-2-(N-(2,4-difluoro-3-(7-fluoro-3-(1H-imidazol-2-yl)-1H-indazol-6-yl)phenyl)sulfamoyl)benzoate]
< 0.5	Cc1ncc(Cl)cc1S(=O)(=O)Nc1ccc(F)c(-c2ccc3c(-c4ncc[nH]4)n[nH]c3c2F)c1F [Example 2CM, 5-chloro-N-(2,4-difluoro-3-(7-fluoro-3-(1H-imidazol-2-yl)-1H-indazol-6-yl)phenyl)-2-methylpyridine-3-sulfonamide]
2.5 to 10	O=c1cccc(S(=O)(=O)Nc2ccc(F)c(-c3ccc4c(-c5ncc[nH]5)n[nH]c4c3F)c2F)[nH]1 [Example 2AL, N-(2,4-difluoro-3-(7-fluoro-3-(1H-imidazol-2-yl)-1H-indazol-6-yl)phenyl)-6-oxo-1,6-dihydropyridine-2-sulfonamide]
2.5 to 10	Cn1cc(S(=O)(=O)Nc2ccc(F)c(-c3ccc4c(-c5ncc[nH]5)n[nH]c4c3F)c2F)cn1 [Example 2C, N-(2,4-difluoro-3-(7-fluoro-3-(1H-imidazol-2-yl)-1H-indazol-6-yl)phenyl)-1-methyl-1H-pyrazole-4-sulfonamide]
< 0.5	O=S(=O)(Nc1ccc(F)c(-c2ccc3c(-c4ncc[nH]4)n[nH]c3c2)c1F)c1cc(Cl)ccc1Cl [Example 2AV, N-(3-(3-(1H-imidazol-2-yl)-1H-indazol-6-yl)-2,4-difluorophenyl)-2,5-dichlorobenzenesulfonamide]
< 0.5	COc1ncc(Cl)cc1S(=O)(=O)Nc1cccc(-c2ccc3c(-c4ncc[nH]4)n[nH]c3c2F)c1Cl [Example 2O, 5-chloro-N-(2-chloro-3-(7-fluoro-3-(1H-imidazol-2-yl)-1H-indazol-6-yl)phenyl)-2-methoxy-pyridine-3-sulfonamide]
< 0.5	Cc1cccc(F)c1S(=O)(=O)Nc1ccc(F)c(-c2ccc3c(-c4ncc[nH]4)n[nH]c3c2F)c1F [Example 2AT, N-(2,4-difluoro-3-(7-fluoro-3-(1H-imidazol-2-yl)-1H-indazol-6-yl)phenyl)-2-fluoro-6-methylbenzene-sulfonamide]
< 0.5	COc1ncccc1S(=O)(=O)Nc1ccc(F)c(-c2ccc3c(-c4ncc[nH]4)n[nH]c3c2F)c1F [Example 2U, N-(2,4-difluoro-3-(7-fluoro-3-(1H-imidazol-2-yl)-1H-indazol-6-yl)phenyl)-2-methoxy-pyridine-3-sulfonamide]
0.5 to 2.5	O=S(=O)(Nc1ccc(F)c(-c2ccc3cn[nH]c3c2)c1F)c1cc(Cl)ccc1Cl [Example 2BX, 2,5-dichloro-N-(2,4-difluoro-3-(1H-indazol-6-yl)phenyl)benzenesulfonamide]
< 0.5	COc1ncc(Cl)cc1S(=O)(=O)Nc1ccc(F)c(-c2ccc3c(C(N)=O)n[nH]c3c2F)c1F [Example 2Z, 6-(3-((5-chloro-2-methoxy-pyridine)-3-sulfonamido)-2,6-difluorophenyl)-7-fluoro-1H-indazole-3-carboxamide]
< 0.5	O=S(=O)(Nc1ccc(F)c(-c2ccc3c(-c4ncc[nH]4)n[nH]c3c2F)c1F)c1cc(F)ccc1F [Example 2BH, N-(2,4-difluoro-3-(7-fluoro-3-(1H-imidazol-2-yl)-1H-indazol-6-yl)phenyl)-2,5-difluorobenzenesulfonamide]
< 0.5	COc1ncc(Cl)cc1S(=O)(=O)Nc1ncc(F)c(-c2ccc3c(-c4ncc[nH]4)n[nH]c3c2F)c1F [Example 6, 5-Chloro-N-(3,5-difluoro-4-(7-fluoro-3-(1H-imidazol-2-yl)-1H-indazol-6-yl)pyridin-2-yl)-2-methoxypyridine-3-sulfonamide]
< 0.5	O=S(=O)(Nc1ccc(F)c(-c2ccc3c(-c4ncc[nH]4)n[nH]c3c2F)c1F)c1c(F)cccc1F [Example 2BG, N-(2,4-difluoro-3-(7-fluoro-3-(1H-imidazol-2-yl)-1H-indazol-6-yl)phenyl)-2,6-difluorobenzenesulfonamide]

same assay, conditions: Table 9

IC50 [µM]	Structure (SMILES)
< 0.5	Cc1ccc(S(=O)(=O)Nc2ccc(F)c(-c3ccc4c(C(=O)Nc5cnn(C)c5)n[nH]c4c3F)c2F)c(C)n1 [Example 3DH, 6-(3-((2,6-dimethylpyridine)-3-sulfonamido)-2,6-difluoro-phenyl)-7-fluoro-N-(1-methyl-1H-pyrazol-4-yl)-1H-indazole-3-carboxamide]
< 0.5	Cc1ncc(F)cc1S(=O)(=O)Nc1ncc(F)c(-c2ccc3c(-c4ncc[nH]4)n[nH]c3c2F)c1F [Example 3F, N-(3,5-difluoro-4-(7-fluoro-3-(1H-imidazol-2-yl)-1H-indazol-6-yl)pyridin-2-yl)-5-fluoro-2-methylpyridine-3-sulfonamide]
< 0.5	COc1ncc(Cl)cc1S(=O)(=O)Nc1ccc(F)c(-c2ccc3c(C(=O)NC[C@@H]4CCCN4C)n[nH]c3c2F)c1F [Example 3E, 6-(3-((5-chloro-2-methoxy-pyridine)-3-sulfonamido)-2,6-difluorophenyl)-7-fluoro-N-(((S)-1-methylpyrrolidin-2-yl)methyl)-1H-indazole-3-carboxamide]
> 10	NC1CCc2c1cc(F)cc2S(=O)(=O)Nc1ccc(F)c(-c2ccc3c(-c4ncc[nH]4)n[nH]c3c2F)c1F (stereo not shown) [Example 4AO]
0.5 to 2.5	COc1ncc(CO)cc1S(=O)(=O)Nc1ccc(F)c(-c2ccc3c(-c4ncc[nH]4)n[nH]c3c2F)c1F [Example 3DC, N-(2,4-difluoro-3-(7-fluoro-3-(1H-imidazol-2-yl)-1H-indazol-6-yl)phenyl)-5-(hydroxylmethyl)-2-methoxypyridine-3-sulfonamide]
< 0.5	O=C1CCc2c1cc(F)cc2S(=O)(=O)Nc1ccc(F)c(-c2ccc3c(C(=O)NCCCO)n[nH]c3c2F)c1F [Example 4U]
< 0.5	COc1ncc(F)cc1S(=O)(=O)Nc1ccc(F)c(-c2ccc3c(C(=O)NC4CCN(C)CC4)n[nH]c3c2F)c1F [Example 3AJ, 6-(2,6-difluoro-3-((5-fluoro-2-methoxypyridine)-3-sulfonamido)phenyl)-7-fluoro-N-(1-methylpiperidin-4-yl)-1H-indazole-3-carboxamide]
2.5 to 10	COc1ncc(Cl)cc1S(=O)(=O)Nc1ccc(F)c(-c2ccc3c(C(=O)Nc4cc(F)cc(Cl)c4)n[nH]c3c2F)c1F [Example 3DA, 6-(3-((5-chloro-2-methoxy-pyridine)-3-sulfonamido)-2,6-difluorophenyl)-N-(3-chloro-5-fluorophenyl)-7-fluoro-1H-indazole-3-carboxamide]
< 0.5	COc1ncc(Cl)cc1S(=O)(=O)Nc1cccc(-c2cc3[nH]nc(C(N)=O)c3cn2)c1F [Example 3BD, 6-(3-((5-chloro-2-methoxy-pyridine)-3-sulfonamido)-2-fluorophenyl)-1H-pyrazolo-[4,3-c]pyridine-3-carboxamide]
< 0.5	O=S(=O)(Nc1ccc(F)c(-c2ccc3c(-c4ncc[nH]4)n[nH]c3c2F)c1F)c1cc(F)cc(CO)c1Cl [Example 3CH, 2-chloro-N-(2,4-difluoro-3-(7-fluoro-3-(1H-imidazol-2-yl)-1H-indazol-6-yl)phenyl)-5-fluoro-3-(hydroxymethyl)-benzenesulfonamide]
0.5 to 2.5	COc1ncc(Cl)cc1S(=O)(=O)Nc1ccc(F)c(-c2ccc3c(C(=O)Nc4cnn(C(F)F)c4)n[nH]c3c2F)c1F [Example 3CR, 6-(3-((5-chloro-2-methoxy-pyridine)-3-sulfonamido)-2,6-difluorophenyl)-N-(1-(difluoromethyl)-1H pyrazol-4-yl)-7-fluoro-1H-indazole-3-carboxamide]
0.5 to 2.5	COc1ncccc1S(=O)(=O)Nc1ccc(F)c(-c2ccc3c(C(=O)NCCCO)n[nH]c3c2F)c1F [Example 3BI, 6-(2,6-difluoro-3-((2-methoxypyridine)-3-sulfonamido)phenyl)-7-fluoro-N-(3-hydroxypropyl)-1H-indazole-3-carboxamide]
< 0.5	O=C(Nc1cnn(CCO)c1)c1n[nH]c2c(F)c(-c3c(F)ccc(NS(=O)(=O)c4cc(F)cc(CO)c4Cl)c3F)ccc12 [Example 4AC]
0.5 to 2.5	Cc1ccc(S(=O)(=O)Nc2ccc(F)c(-c3ccc4c(C(=O)NCCCN(C)C)n[nH]c4c3F)c2F)c(C)n1 [Example 3CO, N-(3-(dimethylamino)propyl)-6-(3-((2,6-dimethylpyridine)-3-sulfonamido)-2,6-difluorophenyl)-7-fluoro-1H-indazole-3-carboxamide]
< 0.5	COc1ncc(F)cc1S(=O)(=O)Nc1ccc(F)c(-c2ccc3c(C(=O)Nc4cnn(C)c4)n[nH]c3c2F)c1F [Example 3Z, 6-(2,6-difluoro-3-((5-fluoro-2-methoxypyridine)-3-sulfonamido)phenyl)-7-fluoro-1H-(1-methyl-1H-pyrazol-4-yl)-1H-indazole-3-carboxamide]
< 0.5	COc1ncccc1S(=O)(=O)Nc1cccc(-c2ccc3c(-c4ncc[nH]4)n[nH]c3c2F)c1F [Example 3W, N-(2-fluoro-3-(7-fluoro-3-(1H-imidazol-2-yl)-1H-indazol-6-yl)phenyl)-2-methoxypyridine-3-sulfonamide]
0.5 to 2.5	COc1ncncc1S(=O)(=O)Nc1ccc(F)c(-c2ccc3c(-c4ncc[nH]4)n[nH]c3c2F)c1F [Example 3CX, N-(2,4-difluoro-3-(7-fluoro-3-(1H-imidazol-2-yl)-1H-indazol-6-yl)phenyl)-4-methoxypyrimidine-5-sulfonamide]
< 0.5	Cc1c(CO)cc(F)cc1S(=O)(=O)Nc1ccc(F)c(-c2ccc3c(C(=O)NCCCO)n[nH]c3c2F)c1F [Example 4H]
< 0.5	COc1ncc(Cl)cc1S(=O)(=O)Nc1cc(F)cc(-c2ccc3c(-c4ncc[nH]4)n[nH]c3c2F)c1F [Example 3C, 5-chloro-N-(2,5-difluoro-3-(7-fluoro-3-(1H-imidazol-2-yl)-1H-indazol-6-yl)phenyl)-2-methoxypyridine-3-sulfonamide]
